Marks after values point to notes of the source that are not given here.
Legend:
[1] = tested on: breast cancer MCF-7 tumor; assay: Subcutaneous xenograft in nude mice, breast cancer MCF-7; format: in vivo; conditions: SC, mean ± SEM, n = 4-5 animals/group
Method: Immunodeficient, female NCr nude mice aged 5-6 weeks and weighing between […] were maintained under specific pathogen-free conditions and housed under controlled conditions of temperature (20-24° C.) and humidity (60-70%) and 12 h light/dark cycle with ad libitum access to water and food. Mice were allowed to acclimatize for 5 days prior to the start of study.
Xenografts containing 1×10^6 to 2×10^6 tumor cells (e.g., pancreatic SUIT2, colon HT-29, glioblastoma U87, or breast cancer MCF-7 cells) were implanted subcutaneously in a mouse flank. There were 2 grafts mouse and there were 4 mice in each group (control, treatments using vehicle). DMSO or ethyl acetate used during the preparation of nanocapsules was totally removed by dialysis and the vehicle used to disperse the DIM or EA and their nanocapsule forms was phosphate buffered saline (PBS).
Tumors were excised at the end of the study from all treatment arms, which included control; DIM; EA; nanocapsule containing DIM; nanocapsule containing EA; nanocapsule containing DIM acid EA; nanocapsule containing cisplatin; nanocapsule containing doxorubicin; nanocapsule containing cisplatin, DIM, and EA; and nanocapsule containing doxorubicin, DIM, and EA. Tumor growth was measured.

[2] = Plasma cardiac troponin in MCF-7 tumor bearing mice; format: in vivo
[3] = tested on: SUIT2 pancreatic cancer cells; assay: MTT cell viability/proliferation assay, SUIT2; format: cell-based, human; conditions: SUIT2, 24 hours, 1 μg/ml
Method: SUIT2-luc cells were grown in DMEM supplemented with 5% fetal bovine serum, 1% penicillin, and 1% streptomycin. Cells were cultured at 37° C. to sub-confluence and treated with 0.25% w/v typsin/EDTA to affect cell release from culture flask. After washing cells with culture medium, cells were suspended in DMEM (free of phenol red and fetal bovine serum) and counted.
SUIT2 cells were subjected to treatment with unencapsulated DIM, unencapsulated EA, combinations thereof, and the nanocapsules containing DIM and/or EA at concentrations of the bioactive compounds ranging from 0.1 to 10 μg. Briefly, cells were seeded at a density of 10^4 cells/well in 96-well plates, and then incubated with compounds and nanocapsules for 24 hours. Cell viability/proliferation was determined by MTT assay, as per the manufacturer's protocol. MTT solution was added to each well, and cells were further incubated for 4 hours at 37° C. The formed dye was solubilized by the addition of 50 μL of DMSO and incubated for 10 min at 37° C. The optical density of each well was determined using an ELISA plate reader at an activation wavelength of 570 nm and reference wavelength of 650 nm. The percentage of viable cells was determined by comparison to untreated control cells.

SUIT2 pancreatic tumor = assay: CAM pancreatic cancer cell implant model (tumor growth, tumor angiogenesis, IVIS bioluminescence); format: in vivo, chick embryo; conditions: for suppression of vascular pattern / tumor angiogenesis of pancreatic tumor: 1 μg/CAM, 3 days of incubation, nanocapsules versus unencapsulated; for viable pancreatic cancer cells, bioluminescence (IVIS): SUIT2-luc tumors, ex vivo imaging
Method: To determine the relative potency of different nanocapsules and unencapsulated bioactive compounds, they were tested in the CAM pancreatic cancer cell implant model of tumor growth and tumor angiogenesis by modifying published protocols (Marcinkiewicz C. Weinreb P H, Calvete J J, Kisiel D G, Mousa S A, Tuszynski G P, Lobb R R. A Potent Selective Inhibitor of alpha1beta1 Integrin in Vitro and Angiogenesis in Vivo. Cancer Res. 2003; 63(9): 2020-2023; and Deryugina E I and Quigley J P: Chick Embryo Chorioallantoic Membrane Models to Quantify Angiogenesis induced by inflammatory and tumor cells or purified effector molecules. Methods in Enzymol. 2008; 444: 21-41, each incorporated herein by reference in their entirety).
A 7-day old chick embryo were purchased from Spafas, Inc. (Preston, Conn.) and incubated at 37° C. with 55% relative humidity. A hypodermic needle was used to make a small hole in the shell at the air sac and a second hole will be made on the broadside of the egg, directly over an avascular portion of the embryonic membrane that was identified by candling. A false air sac was created beneath the second hole by the application of negative pressure at the first hole, causing the CAM to separate from the shell. […] Treatment effects (Tumor growth, and tumor angiogenesis were determined 7 days after tumor cell implantation. For these studies, Matrigel® (BD Bioscience, San Jose Calif.) were thawed overnight at 4° C. and placed on ice. Cells in exponential growth phase were harvested using 0.25% trypsin-EDTA washed and suspended in medium. Only suspensions of single cells with a viability exceeding 95% were used. Approximately 1×10^6 cells in 30 μL of medium mixed with same volume (30 μL) of Matrigel was implanted on the chorioallantoic membrane.
After incubation at 37° C. with 55% relative humidity for 3 days, the CAM tissue directly beneath each filter disk was resected from control and treated CAM samples. […] Digital images of CAM sections exposed to filters were collected, using a 3-CCD color video c vera system (Toshiba America, New York, N.Y.), and analyzed with Image-Pro software (Media Cybernetics, Silver Spring, Md.). The numbers of vessel branch points contained in a circular region equal to the area of each filter disk were counted. One image was counted in each CAM preparation, and findings from 6-8 CAM preparations group were analyzed for each treatment condition.
Results presented as mean tumor weight (mg) per treatment group and tumor hemoglobin (mg/dl)±SD, n=8 eggs per group. The effect of these treatments was determined after 7 days of implantation. […]

cisplatin-induced NF-κB = assay: NF-κB luciferase assay in HeLa cells stimulated with cisplatin; format: cell-based; conditions: Homo sapiens, 3 μM (3 μM total for combinations), n = 3, read-out: Mean % inhibition of cisplatin-induced NFkB ± SD
Method: The induction of NF-κB by cisplatin and other chemotherapies is known to be associated with neuropathy and nephrotoxicity. In this example, the effect of unencapsulated DIM and EA, and the nanocapsules cisplatin-induced NF-κB was studied using HeLa cells which expressed NF-κB.
HeLa cells were seeded at 1×10^5 cells in 2 ml/well in 6-well plates at 37° C. for 24 hours. The doses of the test compounds were based on preliminary studies. Test compounds (nanocapsules containing DIM, nanocapsules containing E&, nanocapsules containing DIM and EA, unencapsulated DIM, and unencapsulated EA) were added at concentrations ranging from 1-3 μM to the plate with fresh medium including 0.5% FBS and incubated at 37° C. in 5% CO2 for an additional 3 hours. For induction of transcription and to test the biological response of the promoters, the cell line stimulated with cisplatin (Sigma) and the cells were incubated at 37° C. in 5% CO2 for 24 hours. The luciferase activity determined by using the luciferase assay system (Promega, Madison, Wis., US). […] Luminescence was immediately measured using Glomax 20/20 Illuminometer (Promega). Luciferase expression of each test compound was quantified as the relative light units (RLU), normalized to readings of control wells, and expressed as relative NF-κB reporter activity. The mean % inhibitory effects of the compounds were calculated.

SMILES	Mean Breast (MCF-7) Tumor Growth [1] [g]	plasma cardiac troponin ([2]; MCF-7 tumor bearing mice)	Troponin (% from control) ([2]; mice, SC)	effect on cell viability/proliferation [3]	suppression of vascular pattern / tumor angiogenesis of pancreatic tumor (SUIT2 pancreatic tumor)	viable pancreatic cancer cells, bioluminescence (IVIS) (SUIT2 pancreatic tumor)	inhibition at 3 µM (cisplatin-induced NF-κB) [%]
COc1cccc2c1C(=O)c1c(O)c3c(c(O)c1C2=O)C[C@@](O)(C(=O)CO)C[C@@H]3O[C@H]1C[C@H](N)[C@H](O)[C@H](C)O1 [DOX, doxorubicin]	0.70 ± 0.15	large increase	+50-70%**				
c1ccc2c(Cc3c[nH]c4ccccc34)c[nH]c2c1 [DIM, 3,3′-diindolylmethane]				did not show any significant effect	mild suppression	statistically significant reduction	20 ± 5
O=c1oc2c(O)c(O)cc3c(=O)oc4c(O)c(O)cc1c4c23 [Ellagic acid, ellagic acid]				did not show any significant effect	mild suppression	statistically significant reduction	26 ± 4
